From the OPERA property sets (Mansouri et al. 2018)
Values after ≈ are worked out from the molar mass of the structure shown.

Row | Compound | solubility | solubility (25 °C) | also measured
1 | NC(=O)N(CCO)/N=C/c1ccc([N+](=O)[O-])o1 | 2.06 mM (≈ 500 µg/mL) |  | 
2 | CC(=O)Oc1ccc(Br)cc1C(=O)O | 2.57 mM (≈ 667 µg/mL) |  | 
3 | CCSc1nnc(C(C)(C)C)c(=O)n1N |  |  | solubility (20 °C): 1.84 mM (≈ 420 µg/mL)
4 | C#CCOC(=O)/C=C(C)/C=C/CC(C)CCCC(C)C (stereo unspecified) | 0.0189 mM (≈ 5.22 µg/mL) |  | 
5 | CC(=O)Nc1c(I)c(C(=O)N[C@H]2C(O)O[C@H](CO)[C@@H](O)[C@@H]2O)c(I)c(N(C)C(C)=O)c1I (stereo partly specified) |  | 634 mM (≈ 500000 µg/mL) | 
6 | Cc1cnc(NS(=O)(=O)c2ccc(N)cc2)nc1 |  |  | solubility (pH 5.5): 1.51 mM (≈ 400 µg/mL)
7 | CCC(C)(CC)OC(N)=O | 27.5 mM (≈ 4000 µg/mL) |  | 
8 | CCCC(C)(COC(N)=O)COC(=O)NC(C)C (stereo unspecified) |  | 1.15 mM (≈ 300 µg/mL) | 
9 | CC(=O)N/N=C/c1ccc([N+](=O)[O-])o1 | 2.54 mM (≈ 500 µg/mL) |  | 
10 | O=C(c1ccc(F)cc1)C1CCN(CCn2c(=O)[nH]c3ccccc3c2=O)CC1 |  | 0.0253 mM (≈ 10 µg/mL) | 
11 | O=c1[nH]c(=O)n([C@H]2C[C@H](O)[C@@H](CO)O2)cc1I |  | 5.65 mM (≈ 2000 µg/mL) | 
12 | CCC1(N2CCCCC2)C(=O)NC(=O)NC1=O | 6.98 mM (≈ 1670 µg/mL) |  | 
13 | CC(C)(C)C(O)C(Oc1ccc(Cl)cc1)n1cncn1 (stereo unspecified) |  |  | solubility (20 °C): 0.406 mM (≈ 120 µg/mL)
14 | O=C([O-])c1ccccc1C(=O)O.[K+] | 408 mM |  | 
15 | CN1C(=O)CCS(=O)(=O)C1c1ccc(Cl)cc1 (stereo unspecified) |  | 9.13 mM (≈ 2500 µg/mL) | 
16 | CNC[C@H](O)[C@@H](O)[C@H](O)[C@H](O)CO |  | 3620 mM (≈ 707000 µg/mL) | 
17 | Cc1cc(NS(=O)(=O)c2ccc(N)cc2)sn1 | 83.9 mM (≈ 22600 µg/mL) |  | 
18 | Nc1nc(N)c(O)c(O)n1 | 20.1 mM (≈ 2850 µg/mL) |  | 
19 | Nc1ccc(S(=O)(=O)NC(=O)c2ccccc2)cc1 |  |  | solubility (30 °C): 1.12 mM (≈ 310 µg/mL)
20 | Nc1nc(N)c(O[C@@H]2O[C@H](CO)[C@@H](O)[C@H](O)[C@H]2O)c(=O)[nH]1 | 32.9 mM (≈ 10000 µg/mL) |  | 
21 | CN(Cc1cc(Br)cc(Br)c1N)C1CCCCC1 | 10.6 mM (≈ 4000 µg/mL) |  | 

Row | Compound | solubility | solubility (25 °C) | also measured
22 | O=C(OCCOCCO)c1ccccc1Nc1cccc(C(F)(F)F)c1 |  |  | solubility (22 °C): 0.00433 mM (≈ 1.6 µg/mL)
23 | O=C1NCCN1/N=C/c1ccc([N+](=O)[O-])o1 | 0.439 mM (≈ 98.5 µg/mL) |  | 
24 | C=CCC(C(=O)NC(N)=O)C(C)C (stereo unspecified) | 1.79 mM (≈ 330 µg/mL) |  | 
25 | CCC(Br)(CC)C(=O)NC(N)=O | 1.4 mM (≈ 333 µg/mL) |  | 
26 | O=C1CN=C(c2ccccc2Cl)c2cc([N+](=O)[O-])ccc2N1 |  | 0.317 mM (≈ 100 µg/mL) | 
27 | O=C1C(Br)=CC(=NCl)C=C1Br |  | 0.196 mM (≈ 58.8 µg/mL) | 
28 | Cn1c(=O)c2c(ncn2CC(O)CO)n(C)c1=O (stereo unspecified) |  | 1310 mM (≈ 333000 µg/mL) | 
29 | O=Cc1ccccc1O[C@@H]1O[C@H](CO)[C@@H](O)[C@H](O)[C@H]1O | 63.3 mM (≈ 18000 µg/mL) |  | 
30 | O=S(=O)([O-])CS(=O)(=O)[O-].[Ca+2] | 1340 mM |  | 
31 | CO[C@H]1[C@H](O)[C@H](O[C@H]2CC[C@@]3(C=O)[C@H](CC[C@@H]4[C@@H]3CC[C@]3(C)[C@@H](C5=CC(=O)OC5)CC[C@]43O)C2)O[C@@H](C)[C@@H]1O |  | 0.729 mM (≈ 400 µg/mL) | 
32 | NC(=O)c1cnccn1 |  | 122 mM (≈ 15000 µg/mL) | 
33 | COc1ccc(C(CN(C)C)C2(O)CCCCC2)cc1.Cl (stereo unspecified) |  |  | logP: 0.43
34 | CC(=O)c1ccc(O)c(O)c1O | 9.51 mM (≈ 1600 µg/mL) |  | 
35 | COCCOc1c(OC)cc(Cc2cnc(N)nc2N)cc1OC |  |  | solubility (30 °C): 7.93 mM (≈ 2650 µg/mL)
36 | Nc1nc(N)nc(-c2ccccc2)n1 |  |  | solubility (22 °C): 3.2 mM (≈ 600 µg/mL)
37 | CCC(C)C(C)(COC(N)=O)COC(N)=O (stereo unspecified) | 4.31 mM (≈ 1000 µg/mL) |  | 
38 | CN1C(=O)OC(C)(C)C1=O | 349 mM (≈ 50000 µg/mL) |  | 
39 | O=C(O)CCSCCC(=O)O |  |  | solubility (26 °C): 209 mM (≈ 37200 µg/mL)
40 | Nc1ncnc2c1ncn2[C@]1(CO)O[C@H](CO)[C@@H](O)[C@H]1O |  | 26.9 mM (≈ 8000 µg/mL) | 
41 | CO[C@H]1O[C@H](CNC(=O)N(CCCl)N=O)[C@@H](O)[C@H](O)[C@H]1O |  | 27.5 mM (≈ 9000 µg/mL) | 
42 | NC(Cc1n[nH]c2ccccc12)C(=O)O (stereo unspecified) |  |  | solubility (29 °C): 39 mM (≈ 8000 µg/mL)

Row | Compound | solubility | solubility (25 °C) | also measured
43 | Cn1c([N+](=O)[O-])cnc1COC(N)=O |  | 14.3 mM (≈ 2870 µg/mL) | 
44 | CCCn1cnc2c1c(=O)n(CCCCC(C)=O)c(=O)n2C |  | 104 mM (≈ 32000 µg/mL) | 
45 | Cc1csc(NS(=O)(=O)c2ccc(N)cc2)n1 | 7.43 mM (≈ 2000 µg/mL) |  | 
46 | CC(C[N+](C)(C)C)OC(N)=O.[Cl-] (stereo unspecified) | 3180 mM |  | 
47 | CC1(C)CC(=O)CC(=O)C1 |  | 29.7 mM (≈ 4160 µg/mL) | 
48 | CCCOC(=O)c1cc(O)c(O)c(O)c1 |  | 16.5 mM (≈ 3500 µg/mL) | 
49 | COC(=O)CC(C)=O | 4310 mM (≈ 500000 µg/mL) |  | 
50 | C=C[C@H]1C[N@@]2CC[C@H]1C[C@H]2C12Nc3ccccc3C1(O)CCO2 (stereo partly specified) | 2.14 mM (≈ 667 µg/mL) |  | 
51 | OC[C@@H](O)[C@H](O)[C@@H](O)CO | 4220 mM (≈ 642000 µg/mL) |  | 
52 | CC(=O)N(C)N(C(=O)C(=O)N(C)C)c1ccccc1 |  |  | solubility (20 °C): 292 mM (≈ 76900 µg/mL)
53 | CCCCN(CCN(CCCC)C(=O)N1CCOCC1)C(=O)N1CCOCC1 | 1250 mM (≈ 500000 µg/mL) |  | 
54 | O=C(CCCN1CCC(O)(c2ccc(Cl)cc2)CC1)c1ccc(F)cc1 |  | 0.0372 mM (≈ 14 µg/mL) | 
55 | C[C@@H]1C(=O)OC[C@H]2[C@@H]1CC[C@@H]2C |  | 11.9 mM (≈ 2000 µg/mL) | 
56 | O=C(C(=O)c1cc([N+](=O)[O-])ccc1O)c1cc([N+](=O)[O-])ccc1O |  | 0.301 mM (≈ 100 µg/mL) | 
57 | CC(O)C(Cl)(Cl)Cl (stereo unspecified) | 175 mM (≈ 28600 µg/mL) |  | 
58 | O=[N+]([O-])c1ccc(C=NO)o1 |  | 6.41 mM (≈ 1000 µg/mL) | 
59 | CN(C)CCc1ccc(O)cc1 | 42.4 mM (≈ 7000 µg/mL) |  | 
60 | CCN(CC)C(=O)CSc1ccc(Cl)nn1 | 19.2 mM (≈ 5000 µg/mL) |  | 
61 | CN1C2CCCC1CC(=O)C2 | 2610 mM (≈ 400000 µg/mL) |  | 
